Legend:
[1] = In vivo ethanol study: oxymorphone 40 mg ER tablets with 240 mL of 40%, 20%, 4%, 0% ethanol; parameters: species or system human
Protocol: The study design was a randomized, open-label, single-dose, four-period crossover in 28 subjects. […] Subjects were fasted overnight for at least 8 hours prior to dosing. Water was allowed ad lib except from 1 hour before dosing until 1 hour after dosing. A standardized meal was served 4 hours and 10 hours after dosing.
A) 40% ethanol B) 20% ethanol C) 4% ethanol D) 0% ethanol
Serial blood samples were obtained from 0 to 48 hours after dosing. Plasma samples were assayed for oxymorphone. Pharmacokinetic parameters for oxymorphone were determined using non-compartmental methods. […] Any treatment in which a subject vomited during the dosing interval (0-12 hours) was excluded from the primary pharmacokinetic analysis.

[2] = Study 5: controlled release 40 mg vs immediate release 4x10 mg, fed and fasting; format: in vivo, human; settings: food effect
Excerpt: Subjects randomized to Treatment 5A and Treatment 5C, as described below, were in a fasted state following a 10-hour overnight fast. […] There was a 14-day washout interval between the four dose administrations. The subjects were confined to the clinic during each study period. Subject assigned to receive Treatment 5A and Treatment 5B were discharged from the clinic on Day 3 following the 48-hour procedures, and subjects assigned to receive Treatment 5C and Treatment 5D were discharged from the clinic on Day 2 following the 36-hour procedures. On Day 1 of each study period the subjects received one of four treatments:
Blood samples (7 ml) were collected during each study period at the 0 hour (predose), and at 0.25, 0.5, 0.75, 1.0, 1.5, 2, 3, 4, 5, 6, 8, 10, 12, 24, 36, 48, 60, and 72 hours post-dose (19 samples) for subjects randomized to all Treatments.

[3] = in vivo; cited from earlier work
[4] = Bioavailability in elderly, hepatically and renally impaired patients
[5] = elderly patients (65 years old or older)

Structure (SMILES): CN1CC[C@]23c4c5ccc(O)c4O[C@H]2C(=O)CC[C@@]3(O)[C@H]1C5 [oxymorphone, 14-hydroxydihydromorphinone]
- AUC change with ethanol ([1]; 240 mL of 20% or 4% ethanol concomitantly): essentially unchanged
- Cmax increase in individual subjects, up to ([1]; 240 mL of 40% ethanol): up to 270%
- AUC change with ethanol ([1]; 240 mL of 40% ethanol concomitantly): not statistically significantly changed
- Cmax increase (average) vs 0% ethanol ([1]; 240 mL of 40% ethanol, excluding subjects who vomited): 70%
- Cmax greater with a meal than without [2]: 50%
- oral bioavailability [3]: about 10%
- increase in Cmax [4, 5]: about 1.5 fold
- increase in bioavailability [4, 5]: about 1.4 fold
- bioavailability ([4]; hepatically impaired patients): increased
- bioavailability ([4]; renally impaired patients): increased

Reference: patent US20090124650A1 (priority 2007, published 2009)
